This is an account of results in ChEMBL document CHEMBL4616640, “Discovery of novel pyrrole derivatives as potent agonists for the niacin receptor GPR109A” (Bioorg Med Chem Lett, 2020).

The nature of the data set: AUC (0 to 7 hrs) in rat at 10 mg/kg, po. Format: ADME, organism-based. Also on record: dose 10 mg/kg, time < 7 hr, route oral. The conditions noted are these: in vivo.

The structures appear in SMILES notation.

Compound `CCCCn1cc(NC(=O)CCc2nc(-c3ccc(O)cn3)no2)c(C(=O)O)c1` gave an AUC(0-t) at 7 h of 630 ng·h/mL.
